In patent US9062015B2, “Inhibitors of sphingosine kinase” (Merck Patent GmbH, priority 2009, dated 2015):

Target: SphK1 (Homo sapiens, UniProt Q9NYA1)
Assay: SphK1 kinase assay, 384-well flashplate (biochemical assay)
Conditions: IC50 ranges; 5 nM modified SphK1, 800 nM omega-biotinyl-D-erythro-sphingosine, 1 μM ATP, 30° C., 120 min; read-out: SphK1 Inhibition IC50
Protocol: Tests for the Inhibition of the SphK1 Activity
The kinase assay is carried out as a 384-well flashplate assay.
5 nM modified SphK1, 800 nM omega-biotinyl-D-erythro-sphingosine and 1 μM ATP (with 0.3 μCi of ^33P-ATP/well) are incubated in a total volume of 50 μl (25 mM HEPES, 5 mM MgCl2, 1 mM dithiothreitol, 0.01% of Brij35, 0.1% of BSA (fatty acid-free), pH 7.4) without or with test substance (5-10 concentrations) at 30° C. for 120 min. The reaction is terminated using 25 μl of 200 mM EDTA solution, filtered off with suction at room temperature after 30 min, and the cavities are washed 3 times with 100 μl of 0.9% NaCl solution. The non-specific proportion of the kinase reaction (blank) is determined using 0.5 mM NaCl. Radioactivity is measured in topcount. IC50 values are calculated using RS1.

Chain of SphK1 (Q9NYA1 9-364 limits assumed): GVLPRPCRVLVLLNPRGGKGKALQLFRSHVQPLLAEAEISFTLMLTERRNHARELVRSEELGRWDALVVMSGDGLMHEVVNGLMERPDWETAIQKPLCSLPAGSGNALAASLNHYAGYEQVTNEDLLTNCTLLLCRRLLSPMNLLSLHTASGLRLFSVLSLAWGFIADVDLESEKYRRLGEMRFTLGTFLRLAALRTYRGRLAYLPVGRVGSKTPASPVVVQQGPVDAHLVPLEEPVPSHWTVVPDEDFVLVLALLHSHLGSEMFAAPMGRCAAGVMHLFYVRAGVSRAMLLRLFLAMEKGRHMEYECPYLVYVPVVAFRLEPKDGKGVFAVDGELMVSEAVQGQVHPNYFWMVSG

| Structure (SMILES) | IC50 |
| --- | --- |
| Cc1ccc(-c2ccc3c(c2)C(C)(C)CCC3(C)C)cc1N1CCNCC1 | > 1000 nM |
| CC1(C)CCC(C)(C)c2cc(-c3cc(N4CCNCC4)ccn3)ccc21 | 100 to 1000 nM |
| COCCOc1ccc(-c2ccc3c(c2)C(C)(C)CCC3(C)C)nc1N1CCNCC1 | > 1000 nM |
| CC1(C)CCC(C)(C)c2cc(-c3ncnc(N4CCC(N)CC4)n3)ccc21 | < 100 nM |
| CC1(C)CCC(C)(C)c2cc(-c3ccnc(N4CCNCC4)c3)ccc21 | 100 to 1000 nM |
| CC1(C)CCC(C)(C)c2cc(-c3nccc(N4CCN(CCCO)CC4)n3)ccc21 | 100 to 1000 nM |
| CC1(C)CCC(C)(C)c2cc(-c3cc(N4CCN(CCCCO)CC4)ccn3)ccc21 | 100 to 1000 nM |
| CC1(C)CCC(C)(C)c2cc(-c3cccc(N4CCN(CCCCO)CC4)c3)ccc21 | 100 to 1000 nM |
| CC1(C)CCC(C)(C)c2cc(-c3ccnc(N4CCN(CCCCO)CC4)c3)ccc21 | 100 to 1000 nM |
| CC1(C)CCC(C)(C)c2cc(-c3cccc(N4CCN(CCCCO)CC4)n3)ccc21 | < 100 nM |
| COCCOc1ccc(-c2ccc3c(c2)C(C)(C)CCC3(C)C)nc1N1CCN(CCCCCO)CC1 | > 1000 nM |
| CC1(C)CCC(C)(C)c2cc(-c3cccc(N4CCN(CCCCCO)CC4)c3)ccc21 | < 100 nM |
| CC1(C)CCC(C)(C)c2cc(-c3ncnc(N4CCN(CCCCCO)CC4)n3)ccc21 | < 100 nM |
| CC1(C)CCC(C)(C)c2cc(-c3cccc(N4CCN(CCCCCO)CC4)n3)ccc21 | < 100 nM |
| CC1(C)CCC(C)(C)c2cc(-c3cccc(N4CCN(CCCCCOC(=O)CN)CC4)c3)ccc21 | 100 to 1000 nM |
| CC1(C)CCC(C)(C)c2cc(-c3cccc(N4CCN(C[C@@H](N)CO)CC4)n3)ccc21 | > 1000 nM |
| C[C@H]1CN(c2cccc(-c3ccc4c(c3)C(C)(C)CCC4(C)C)c2)CCN1 | 100 to 1000 nM |
| CC1(C)CCC(C)(C)c2cc(-c3cccc(N4CCNCC4)c3)ccc21 [1-[3-(5,5,8,8-Tetramethyl-5,6,7,8-tetrahydronaphthalen-2-yl)phenyl]-piperazine] | 100 to 1000 nM |
| CC1(C)CC(C)(C)c2cc(-c3cccc(N4CCNCC4)n3)ccc21 [1-[6-(1,1,3,3-Tetramethylindan-5-yl)pyridin-2-yl]piperazine] | 100 to 1000 nM |
| CC1(C)CCc2cc(-c3cccc(N4CCNCC4)n3)ccc21 [1-[6-(1,1-Dimethylindan-5-yl)pyridin-2-yl]piperazine] | > 1000 nM |
| CC1(C)CCC(C)(C)c2cc(-c3cccc(N4CCNCC4)n3)ccc21 [1-[6-(5,5,8,8-Tetramethyl-5,6,7,8-tetrahydronaphthalen-2-yl)pyridin-2-yl]piperazine] | 100 to 1000 nM |
| CC1(C)CCCc2cc(-c3cccc(N4CCNCC4)n3)ccc21 [1-[6-(5,5-Dimethyl-5,6,7,8-tetrahydronaphthalen-2-yl)pyridin-2-yl]-piperazine] | > 1000 nM |
| CC1(C)CCCc2ccc(-c3cccc(N4CCNCC4)n3)cc21 [1-[6-(8,8-Dimethyl-5,6,7,8-tetrahydronaphthalen-2-yl)pyridin-2-yl]-piperazine] | > 1000 nM |
| CC1(C)CCC(C)(C)c2cc(-c3cccc(N4CCC(N5CCC(N)C5)CC4)n3)ccc21 (stereo not shown) [1-[6′-(5,5,8,8-Tetramethyl-5,6,7,8-tetrahydronaphthalen-2-yl)-3,4,5,6-tetrahydro-2H-1,2′-bipyridinyl-4-yl]pyrrolidin-3-ylamine] | < 100 nM |
| CC1(C)CCC(C)(C)c2cc(-c3ncnc(N4CCC(N5CCC(N)C5)CC4)n3)ccc21 (stereo not shown) [1-{1-[4-(5,5,8,8-Tetramethyl-5,6,7,8-tetrahydronaphthalen-2-yl)-1,3,5-triazin-2-yl]piperidin-4-yl}pyrrolidin-3-ylamine] | 100 to 1000 nM |

| Structure (SMILES) | IC50 |
| --- | --- |
| CC1(C)CCC(C)(C)c2cc(-c3ncnc(N4CCC(N5CCCC(O)C5)CC4)n3)ccc21 (stereo not shown) [1′-[4-(5,5,8,8-Tetramethyl-5,6,7,8-tetrahydronaphthalen-2-yl)-1,3,5-triazin-2-yl]-1,4′-bipiperidinyl-3-ol] | 100 to 1000 nM |
| CC1(C)CCCc2cc(-c3ncnc(N4CCNCC4)n3)ccc21 [2-(5,5-Dimethyl-5,6,7,8-tetrahydronaphthalen-2-yl)-4-piperazin-1-yl-1,3,5-triazine] | > 1000 nM |
| CC1(C)CCCc2ccc(-c3ncnc(N4CCNCC4)n3)cc21 [2-(8,8-Dimethyl-5,6,7,8-tetrahydronaphthalen-2-yl)-4-piperazin-1-yl-1,3,5-triazine] | > 1000 nM |
| CC1(C)CCC(C)(C)c2cc(-c3ncnc(N4CCNCC4)n3)ccc21 [2-Piperazin-1-yl-4-(5,5,8,8-tetramethyl-5,6,7,8-tetrahydronaphthalen-2-yl)-1,3,5-triazine] | < 100 nM |
| CC1(C)CCC(C)(C)c2cc(-c3ccnc(N4CCNCC4)n3)ccc21 [2-Piperazin-1-yl-4-(5,5,8,8-tetramethyl-5,6,7,8-tetrahydronaphthalen-2-yl)pyrimidine] | 100 to 1000 nM |
| CC1(C)CCC(C)(C)c2cc(-c3cccc(N4CCN(CCCO)CC4)n3)ccc21 [3-{4-[6-(5,5,8,8-Tetramethyl-5,6,7,8-tetrahydronaphthalen-2-yl)-pyridin-2-yl]piperazin-1-yl}propan-1-ol] | 100 to 1000 nM |
| CC1(C)CCCc2cc(-c3cccc(N4CCN(CCCO)CC4)n3)ccc21 [3-{4-[6-(5,5-Dimethyl-5,6,7,8-tetrahydronaphthalen-2-yl)pyridin-2-yl]-piperazin-1-yl}propan-1-ol] | > 1000 nM |
| CC1(C)CCC(C)(C)c2cc(-c3nccc(N4CCNCC4)n3)ccc21 [4-Piperazin-1-yl-2-(5,5,8,8-tetramethyl-5,6,7,8-tetrahydronaphthalen-2-yl)pyrimidine] | 100 to 1000 nM |
| CC1(C)CCC(C)(C)c2cc(-c3cccc(N4CCC(NCCCCO)CC4)n3)ccc21 [4-[6′-(5,5,8,8-Tetramethyl-5,6,7,8-tetrahydronaphthalen-2-yl)-3,4,5,6-tetrahydro-2H-1,2′-bipyridinyl-4-ylamino]butan-1-ol] | < 100 nM |
| CC1(C)CCC(C)(C)c2cc(-c3ncnc(N4CCC(NCCCCO)CC4)n3)ccc21 [4-{1-[4-(5,5,8,8-Tetramethyl-5,6,7,8-tetrahydronaphthalen-2-yl)-1,3,5-triazin-2-yl]piperidin-4-ylamino}butan-1-ol] | < 100 nM |
| CC1(C)CCC(C)(C)c2cc(-c3ncnc(N4CCN(CCCCO)CC4)n3)ccc21 [4-{4-[4-(5,5,8,8-Tetramethyl-5,6,7,8-tetrahydronaphthalen-2-yl)-1,3,5-triazin-2-yl]piperazin-1-yl}butan-1-ol] | < 100 nM |
| CC1(C)CC(C)(C)c2cc(-c3cccc(N4CCN(CCCCO)CC4)n3)ccc21 [4-{4-[6-(1,1,3,3-Tetramethylindan-5-yl)pyridin-2-yl]piperazin-1-yl}-butan-1-ol] | 100 to 1000 nM |
| CC1(C)CCc2cc(-c3cccc(N4CCN(CCCCO)CC4)n3)ccc21 [4-{4-[6-(1,1-Dimethylindan-5-yl)pyridin-2-yl]piperazin-1-yl}butan-1-ol] | > 1000 nM |
| CC1(C)CCCc2cc(-c3cccc(N4CCN(CCCCO)CC4)n3)ccc21 [4-{4-[6-(5,5-Dimethyl-5,6,7,8-tetrahydronaphthalen-2-yl)pyridin-2-yl]-piperazin-1-yl}butan-1-ol] | > 1000 nM |
| CC1(C)CCCc2ccc(-c3cccc(N4CCN(CCCCO)CC4)n3)cc21 [4-{4-[6-(8,8-Dimethyl-5,6,7,8-tetrahydronaphthalen-2-yl)pyridin-2-yl]-piperazin-1-yl}butan-1-ol] | > 1000 nM |
| CC1(C)CCC(C)(C)c2cc(-c3cccc(N4CCC(NCCCCCO)CC4)n3)ccc21 [5-[6′-(5,5,8,8-Tetramethyl-5,6,7,8-tetrahydronaphthalen-2-yl)-3,4,5,6-tetrahydro-2H-1,2′-bipyridinyl-4-ylamino]pentan-1-ol] | 100 to 1000 nM |
| CC1(C)CC(C)(C)c2cc(-c3cccc(N4CCN(CCCCCO)CC4)n3)ccc21 [5-{4-[6-(1,1,3,3-Tetramethylindan-5-yl)pyridin-2-yl]piperazin-1-yl}-pentan-1-ol] | 100 to 1000 nM |
| CC1(C)CCc2cc(-c3cccc(N4CCN(CCCCCO)CC4)n3)ccc21 [5-{4-[6-(1,1-Dimethylindan-5-yl)pyridin-2-yl]piperazin-1-yl}pentan-1-ol] | > 1000 nM |
| CC1(C)CCCc2cc(-c3cccc(N4CCN(CCCCCO)CC4)n3)ccc21 [5-{4-[6-(5,5-Dimethyl-5,6,7,8-tetrahydronaphthalen-2-yl)pyridin-2-yl]-piperazin-1-yl}pentan-1-ol] | 100 to 1000 nM |
| CC1(C)CCCc2ccc(-c3cccc(N4CCN(CCCCCO)CC4)n3)cc21 [5-{4-[6-(8,8-Dimethyl-5,6,7,8-tetrahydronaphthalen-2-yl)pyridin-2-yl]-piperazin-1-yl}pentan-1-ol] | > 1000 nM |
| CC1(C)CCC(C)(C)c2cc(-c3cccc(C4CCNCC4)n3)ccc21 [6-(5,5,8,8-Tetramethyl-5,6,7,8-tetrahydronaphthalen-2-yl)-1′,2′,3′,4′,5′,6′-hexahydro-2,4′-bipyridinyl] | 100 to 1000 nM |
| CC1(C)CCC(C)(C)c2cc(-c3cncc(N4CCNCC4)n3)ccc21 [6′-(5,5,8,8-Tetramethyl-5,6,7,8-tetrahydronaphthalen-2-yl)-3,4,5,6-tetrahydro-2H-1,2′-bipyrazinyl] | > 1000 nM |
| CC1(C)CCC(C)(C)c2cc(-c3cccc(N4CCC(N)CC4)n3)ccc21 [6′-(5,5,8,8-Tetramethyl-5,6,7,8-tetrahydronaphthalen-2-yl)-3,4,5,6-tetrahydro-2H-1,2′-bipyridinyl-4-ylamine] | 100 to 1000 nM |
| CC1(C)CCC(C)(C)c2cc(-c3cccc(N4CCC(N5CCCC(O)C5)CC4)n3)ccc21 (stereo not shown) [6″-(5,5,8,8-Tetramethyl-5,6,7,8-tetrahydronaphthalen-2-yl)-3,4,5,6,3′,4′,5′,6′-octahydro-2H,2′H-[1,4′;1′,2″]terpyridin-3-ol] | 100 to 1000 nM |
